The values that follow come from a melting point compilation (Tetko et al.; mined from patent text by program, amines drawn as free bases though some values may be those of a salt).

A value given as a limit tells only on which side of the number the result lay.

The term melting point denotes the temperature of the solid-liquid transition. In turn, `CCCCCCCCOc1ccc(-n2nc3ccc(C(F)(F)F)cc3n2)c(O)c1` returned a melting point of 79 to 81 °C.
As to `NC(=O)CNC(=O)c1cccc(-c2cc(F)cc3cc(Cc4cccc(C(F)(F)F)c4)sc23)c1`, the melting point was in the range of 71 to 73 °C.
To `Cc1ccc(N2Cc3ccccc3P2(=O)C(C)C)cc1` (centres undefined) belongs 135 to 137 °C; to `Cc1nc2cccc(OCC(C)(C)NC(=O)C(C)C)c2c(N)c1C(=O)O`, 184 to 186 °C; to `Nc1nc(Cl)c2ncn(OCCOCP(=O)(O)O)c2n1`, 190 to 195 °C.
The figure for `CCOC(c1ccc(Cl)c2nc3n(c12)CCCN3c1ccc(Cl)cc1Cl)C1CC1` (centres undefined) is 138 to 140 °C; for `O=C(Nc1ccc(CN2C(=O)[C@H]3CCC[C@H]3N(C(=O)CN3C(=O)c4ccccc4C3=O)c3ccccc32)cc1)c1ccc(F)cc1` (relative stereo) it is 244 to 246 °C; for `CNc1nc(-c2cccc(-c3cncc(-c4ccccc4)c3)c2)c2cc(OC)c(OC)cc2n1` it is 200 to 202 °C.
`C[C@]1(CN2CCN(C(=O)c3ccc(Cl)cc3)CC2)Cn2cc([N+](=O)[O-])nc2O1` yielded a melting point of 173 to 174 °C.
The figure for `COc1cc2ncc(C#N)c(Nc3ccc(F)c(Cl)c3)c2cc1NC(=O)C=CCN1CCC(O)CC1` is > 215 °C; for `O=C(Cc1ccc(Cl)cc1)Nc1cccc2nc(N[C@@H]3CCc4ccccc43)ccc12` it is 170 °C; for `Cc1c(NC(=O)CC(C)(C)C)cc2c(c1C)OC(C)(C)C2(O)c1ccc2ccccc2c1` (centres undefined) it is 142 to 144 °C.
To `NC(=O)C1C(=O)NC(=O)C(C(N)=O)C12CCCCC2` (centres undefined) belongs > 300 °C; to `CCn1c(-c2cc3ccccc3[nH]2)nc(-c2ccncc2)c1-c1ccc(Cl)cc1`, 279 to 280 °C; to `COc1ccc(-c2cc(=Nc3c(C)cc(C)cc3C)n(C)c(=O)n2C)cc1N`, 176 to 178 °C.
The figure for `CCOC(=O)C1Cc2cc(-c3ccccc3)ccc2O1` (centres undefined) is 112 °C; for `CSc1c(C(=O)NN=Cc2nccs2)[nH]c2ccccc12` it is 216 to 222 °C.
`CC(C)[C@H](N=Cc1cccc(-c2ccccc2)c1O)C(=O)O` had a melting point of 140 to 141 °C.
`CSc1ncc2cc(C)c(=O)[nH]c2n1` returned a melting point of 243 to 245 °C.
To `CCN(CC)CCOc1ccc(Nc2ncc3c(=O)n(Cc4ccc(OC)cc4)c(=O)n(C(C)C)c3n2)cc1` belongs 139 to 141 °C; to `CCOC(=O)C(C)Oc1ccc(C(=O)Nc2ccccc2Sc2ccccc2-c2nnn[nH]2)cc1` (centres undefined), 157 to 158 °C; to `CC(O)c1cnc2c(-c3cc(-c4ccccc4)cs3)cnn2c1O` (centres undefined), 262 to 285 °C.
To `Cc1cn(-c2cc(C(=O)O)cc(C(F)(F)F)c2)cn1` belongs > 300 °C; to `CCOC(=O)C(Cc1ccc(N)s1)NC(=O)OC(C)(C)C` (racemic), 132 °C; to `COC(=O)N1Cc2nc(C(=O)O)cn2-c2ccccc21`, 204 to 208 °C.
To `FC(F)(F)c1ccc2c(c1)N(CC1CN3CCC1CC3)c1ccccc1S2` (centres undefined) belongs 150 °C; to `COc1ccc(S(=O)(=O)N(CC(N)=O)c2ccc(Cl)cc2C(O)c2c(Cl)cccc2Cl)cc1OC` (centres undefined), 128 °C; to `CC(C)C#CC1(C(F)(F)F)OCC(=O)Nc2ccc(Cl)cc21` (centres undefined), 183 to 184 °C.
`COC(=O)[C@H](CSC(=O)[C@@H](C)c1ccc(CC(C)C)cc1)NC(C)=O` registered a melting point of 75 to 77 °C.
To `Clc1ccc(-c2cc(-c3cccs3)[nH]n2)cc1` belongs 217 °C; to `CC1CCC(=NN(C)c2ccccc2)c2ncc(C(=O)O)c(=O)n21` (centres undefined), 196 to 198 °C; to `c1cc(Nc2nccc(-c3ccco3)n2)cc(-n2ccnc2)c1`, 175 to 178 °C.
To `CCCc1nc2c(N)nc3cc(OCc4ccc(Cl)c(Cl)c4)ccc3c2n1CC(C)C` belongs 183 to 184 °C; to `S=C(Nc1ccc(Cl)cc1)NC1CC2C3CC4C2C4C13` (centres undefined), 168 to 170 °C.
To `COc1cc(F)c(CNCCc2ccc(O)cc2)cc1O` belongs 160 to 162 °C; to `COC(=O)c1ccc(NS(=O)(=O)c2ccc(Oc3cccc(Cl)c3C#N)cc2)cn1`, 153 to 155 °C; to `CN(C)Cc1cc(-c2c(-c3ccc(F)cc3)nn3c(Cl)cccc23)nc(NC2CCCC2)n1`, 68 to 75 °C.
For the compound `CC(=O)O[C@H]1C[C@@H](n2cc(C)c(=O)[nH]c2=O)[C@H](O)[C@@H]1O` (racemic), the melting point was in the range of 58 to 61 °C.
The figure for `ClCCCOc1ccc(-c2ccc(OCCCCl)cc2)cc1` is 201 °C; for `CCCCCS(=O)(=O)NC(=O)/C=C/c1cc(OCCCC)nn1Cc1ccc(C(F)(F)F)cc1Cl` it is 130 to 132 °C.
The figure for `COc1ccc(/C=C/c2ccccc2[N+](=O)[O-])c([N+](=O)[O-])c1` is 142 to 143 °C.
The figure for `COc1ccc(Cn2c(Cl)nc3c(Cl)ncnc32)cc1` is 110 to 112 °C; for `CCOC(=O)c1cn(-c2nccs2)c2nc(Cl)cc(Cl)c2c1=O` it is 226 to 227 °C.
The compound `O=c1[nH]c(Cc2cccc(O)c2)cc2ccccc12` gave a melting point of 225 to 227 °C.
The figure for `CCC12OC[C@@H](O1)[C@@H](O)C[C@H]2OC` is 43 to 44 °C; for `N[C@@H](Cc1ccc(CC(F)(F)C(F)(F)F)cc1)[C@H](O)c1cccc(Cl)c1` (racemic) it is 109 to 110 °C; for `CCCc1nc(C)n2nc(C(=O)OCC)nc2c1Cc1ccc(-c2ccccc2C#N)cc1` it is 108 °C.
For the compound `COc1cc2ncc(C#N)c(Nc3ccc(O)cc3C)c2cc1OC`, the melting point is > 250 °C.
To `Nc1ncc2c(n1)-c1ccc(Cl)cc1C(c1ccccc1F)=NC2` belongs 245 to 248 °C.
The compound `COc1c2c(cc3ccc(=O)oc13)CC(C)O2` (centres undefined) came in with a melting point of 115 to 116 °C.
The figure for `CCOC(=O)c1c(N(C)C)cc(C(F)(F)F)nc1C(F)(F)F` is 63.5 to 65 °C.
To `CC(=O)Nc1ccc2c(c1)-n1cc(C(=O)O)nc1CO2` belongs 295 to 296 °C; to `CC1(C)CC(=O)C(c2ccc([N+](=O)[O-])cc2Cl)C(=O)C1`, 250 to 253 °C.
To `CC(C)(C)c1ccc(NC(=O)c2ccc(C3=NCCS3)cc2)cc1` belongs 176 to 177 °C; to `CCOC(=O)c1cccc(-c2cn(C)cc(-c3ccccc3)c2=O)c1`, 167 to 168 °C; to `CCN(CC)C(=O)n1ccc(S(=O)(=O)c2ccccc2OC)n1`, 67 to 68 °C.
`NC(=O)c1ccc(F)c2c1CC(N)CO2` (centres undefined) registered a melting point of 229 °C.
To `Fc1ccc(-c2cc(C(C(F)(F)F)C(F)(F)F)[nH]c2-c2ccc(F)cc2)cc1` belongs 123 to 124 °C.
Take `O=C1OC(=O)c2cc3cc(O)ccc3cc21`: the melting point turned out to be 266 °C.
The figure for `Cc1cc(O)ccc1C(=O)N1CCN(C)CC1` is 167 to 168 °C; for `CCc1nn(C2CCCC2)c2cc(C(=O)Nc3c(Cl)cccc3Cl)ccc12` it is 177 to 179 °C.
Regarding `CCOCCOC(=O)c1cc2cc(Br)ccc2nn1`, the melting point is 128 to 130 °C.
The figure for `COc1cc(NC(=O)CC#N)c(Cl)cc1Cl` is 180 to 181 °C; for `[N-]=[N+]=Nc1ccc(C(=O)OCCOC(=O)CC[C@@H](C(=O)O)n2c3ccccc3c3ccccc32)cc1` it is 70 °C.
To `Cc1ccc(C(=O)Nc2cc(C(F)(F)F)ccn2)cc1/C=C/n1cnc2c(NC3CC3)ncnc21` belongs 232 °C; to `CCc1ccnc2c([N+](=O)[O-])cc(OC)cc12`, 158 to 159 °C; to `FC(F)(F)c1nnc2c3cc4c(cc3ccn12)OCO4`, 187 to 189 °C.
To `COC(=O)[C@@H]1C[C@@H](OS(C)(=O)=O)CN1C(=O)C1(C)CC1` belongs 102 to 103 °C; to `Cn1c(=O)ccc2cc(-c3cccnc3)ccc21`, 116 to 118 °C.
With `CCCC(=O)c1ccc2c(c1)C(C)C(=S)N2` (centres undefined), the melting point was 133 to 136 °C.
The figure for `CC(C)CC(NC(=O)c1ccc(CBr)cc1)C(=O)NC(C)(C)C#N` (centres undefined) is 185 to 187 °C.
Regarding `Cc1sc2c(c1C)C(c1ccc(Cl)cc1)=N[C@@H](CC(=O)Nc1ccc(N)cc1)c1nnc(C)n1-2`, the melting point was in the range of 169 to 173 °C.
The figure for `N#Cc1cc(-c2c3ccccc3cc3sc4ccccc4c23)ccc1OCC(=O)O` is 235 to 236 °C; for `CCOC(=O)C(=CNC1CC1)C(=O)c1c(F)c(F)c(Br)c(F)c1F` it is 167 to 168 °C; for `CCc1cc(C2(c3ccc(F)c(-c4cncc(F)c4)c3)N=C(N)N(C)C2=O)cc(CC)n1` (centres undefined) it is 155 to 157 °C.
For `CC(C)(C)c1cc(C(C)(C)C)c2c(c1)C1(O)C(=O)c3ccccc3C1(O)O2` (centres undefined), the melting point was 200 to 203 °C.
`CCOC(=O)CCCOc1cccc2cc(/C(C)=C/C(=O)Nc3ccc(OC)cc3)oc12`: the melting point was 141 to 142 °C.
The figure for `Cc1cncc(COc2cccc(C(N)=O)c2)c1` is 152 to 154 °C; for `O=C(O)c1cn(-c2csnn2)c2cc(F)c(F)cc2c1=O` it is 239 to 244 °C; for `CCOC(=O)CSc1cc(NS(=O)(=O)c2cccs2)c2ccccc2c1O` it is 116 to 118 °C.
To `CCOC(=O)CCC(=O)Nc1cc(OC)c(OC)cc1C(=O)OCC` belongs 125 °C; to `CC1(C)CC(=O)c2c(-c3ccccn3)cn(-c3ccccn3)c2C1`, 171 to 174 °C; to `COc1cc([N+](=O)[O-])c(C(=O)c2ccccc2)cc1O`, 154 to 156 °C.
To `CC(C(=O)N1CCOCC1)N1CCN(c2ccccc2)CC1` (centres undefined) belongs 105 to 107 °C.
The compound `COCCNC(=S)n1nc(Oc2c(Cl)cc(C(F)(F)F)cc2Cl)cc1C` returned a melting point of 83 to 86 °C.
The figure for `CSCC[C@H](N)C(=O)NC(=O)N(CCCl)N=O` is 95 to 97 °C; for `N#Cc1cc(=O)c(-c2ccccc2)co1` it is 177 to 179 °C.
To `CCCC(NS(C)(=O)=O)P(=O)(OCCCl)OCCCl` (centres undefined) belongs 69 to 72 °C; to `c1ccc(C2=Nc3ccccc3-n3ccc4cccc2c43)cc1`, 128 to 136 °C.
